“Also recorded” adds a separate entry of the source.
Tests used:
[1] = system: Long-Evans rats; experiment: Oxycodone-induced conditioned place preference (CPP) in rats; type: in vivo, rat
Protocol: CPP was tested in the place-conditioning apparatus (Med Associates, St Albans, VT) consisting of two side compartments (21×28 cm^2) and a central gray connecting area (21×12.5 cm^2); a sliding door separated each compartment from the connecting area. The two side compartments differed in wall color (black vs white), floor type (net vs grid), and illumination. Each rat was first exposed in the CPP apparatus for 15 minutes (preconditioning) and then followed by oxycodone CPP conditioning. […] Oxycodone CPP procedures consisted of 2 days of oxycodone (3 mg/kg, ip) conditioning in one compartment and 2 days of saline conditioning in another compartment, alternatively (e.g., oxycodone-saline-oxycodone-saline). The compartments paired with oxycodone or saline were counterbalanced. […] After oxycodone injection, animals were immediately confined in the assigned compartments for 40 minutes. To potentiate oxycodone CPP formation, animals received 4 days of oxycodone (3 mg/kg, ip, twice daily at 8:00 and 18:00) treatment at home cages. […] In the (Vehicle+vehicle) group, saline was paired with each compartment. Then 24 hours after the last saline or oxycodone conditioning injection, animals were placed in the same three-chamber CPP apparatus for 15 minutes and the time spent in each compartment was recorded. The CPP score was calculated by the time difference (seconds) that animal spent in drug-paired compartment versus saline-paired compartment.

[2] = system: Long-Evans rats; experiment: Responding during saline substitution (extinction) testing in rats; type: in vivo, rat; conditions: 5 or 15 mg/kg
Text: Experiment 2. […] Following the completion of the self-administration testing, rats were allowed to self-administer oxycodone for another 4 daily sessions. […] Fifteen min after injection, they were placed in the chambers and allowed to lever-press for saline infusion for 3 hr.

[3] = Sucrose self-administration; type: in vivo; conditions: pretreatment (±)-29 15 and 25 mg/kg, (±)-19 1 and 5 mg/kg
[4] = system: rats; experiment: Naloxone-precipitated conditioned place aversion in chronic oxycodone treated rats; type: in vivo, rat; conditions: chronic oxycodone-treated rats, 5, 15 mg/kg, 1 hour prior to naloxone, FIG. 6
Text: The place-conditioning apparatus (Med Associates, St Albans, VT) consisted of two compartments (21×28 cm^2) linked by a gray connecting area (21×12.5 cm^2); a sliding door separated each compartment from the connecting area. The two end compartments differed in wall color (black vs white), floor type (grid vs net), and illumination; preference for the end compartments was balanced by using weaker illumination in the reflective (and normally less-preferred) white compartment and stronger illumination in the non-reflective black compartment. The paradigm was further ‘balanced’ by associating the training injections with the white side in half the animals and with the black side in the remaining animals.
The CPA procedures in this study were similar to those described by others (Azar et al., 2003; Olmstead and Burns 2005; 2012). Briefly, one day before drug treatments started, rats (200-250 g) were randomly divided into 6 groups and were allowed to explore their assigned conditioning apparatus for 15 min (preconditioning). […] CPA score was calculated as animals' time spent in drug-paired minus saline-paired compartments, Oxycodone HCl and naloxone HCl were purchased from Sigma Chemical Co. (Saint Louis, MO, USA) and were dissolved in physiological saline.

## CCc1cc(Cl)c(OC)c(N2CCN(CC(O)CCNC(=O)c3cc4ccccc4[nH]3)CC2)c1 (racemic) [Compound 29, N-(4-(4-(3-chloro-5-ethyl-2-methoxyphenyl)piperazin-1-yl)-3-hydroxybutyl)-1H-indole-2-carboxamide]
[1]; rats, 15 mg/kg alone
  CPP produced by compound alone: did not produce CPP
[1]; rats, 15 mg/kg, p<0.05
  oxycodone induced CPP, posthoc comparison to (Vehicle+oxycodone) group: significant reduction in oxycodone induced CPP
[1]; rats, 5, 15 mg/kg ip, 15 min before each oxycodone injection (3 mg/kg ip), FIG. 10
  oxycodone-induced CPP: dose-dependently attenuated oxycodone-induced CPP
[2]
  oxycodone seeking during extinction testing: inhibited oxycodone seeking during extinction testing
[3]
  sucrose self-administration: no significant effects on sucrose self-administration
[4]
  naloxone-precipitated conditioned place aversion: inhibits naloxone-precipitated conditioned place aversion; also recorded: significantly attenuated naloxone-precipitated conditioned place aversion
[4]; listed as (±)-29
  naloxone-precipitated conditioned place aversion: inhibition of naloxone-precipitated conditioned place aversion

From patent US12162861B2, “Dopamine D3 receptor selective antagonists/partial agonists; method of making; and use thereof” (THE UNITED STATES OF AMERICA, AS REPRESENTED BY THE …, priority 2016, dated 2024)
